PubChem BioAssay AID504478 (NMMLSC, 2011)
pIC50: −log10 of the molar value.

Target: Serine/threonine-protein kinase SCH9 (Saccharomyces cerevisiae (strain ATCC 204508 / S288c)) (UniProt P11792)
Experiment: Sch9 T570 phosphorylation inhibition in yeast, SAR follow-up, mechanism study for yeast TOR pathway modulator project, cell-based, HA-Sch9, immunoblot (AID 504478)
Settings: S. cerevisiae HA-Sch9, T570 phospho immunoblot, 30 min

Serine/threonine-protein kinase SCH9 (Saccharomyces cerevisiae (strain ATCC 204508 / S288c)), sequence (P11792 whole entry, looked up): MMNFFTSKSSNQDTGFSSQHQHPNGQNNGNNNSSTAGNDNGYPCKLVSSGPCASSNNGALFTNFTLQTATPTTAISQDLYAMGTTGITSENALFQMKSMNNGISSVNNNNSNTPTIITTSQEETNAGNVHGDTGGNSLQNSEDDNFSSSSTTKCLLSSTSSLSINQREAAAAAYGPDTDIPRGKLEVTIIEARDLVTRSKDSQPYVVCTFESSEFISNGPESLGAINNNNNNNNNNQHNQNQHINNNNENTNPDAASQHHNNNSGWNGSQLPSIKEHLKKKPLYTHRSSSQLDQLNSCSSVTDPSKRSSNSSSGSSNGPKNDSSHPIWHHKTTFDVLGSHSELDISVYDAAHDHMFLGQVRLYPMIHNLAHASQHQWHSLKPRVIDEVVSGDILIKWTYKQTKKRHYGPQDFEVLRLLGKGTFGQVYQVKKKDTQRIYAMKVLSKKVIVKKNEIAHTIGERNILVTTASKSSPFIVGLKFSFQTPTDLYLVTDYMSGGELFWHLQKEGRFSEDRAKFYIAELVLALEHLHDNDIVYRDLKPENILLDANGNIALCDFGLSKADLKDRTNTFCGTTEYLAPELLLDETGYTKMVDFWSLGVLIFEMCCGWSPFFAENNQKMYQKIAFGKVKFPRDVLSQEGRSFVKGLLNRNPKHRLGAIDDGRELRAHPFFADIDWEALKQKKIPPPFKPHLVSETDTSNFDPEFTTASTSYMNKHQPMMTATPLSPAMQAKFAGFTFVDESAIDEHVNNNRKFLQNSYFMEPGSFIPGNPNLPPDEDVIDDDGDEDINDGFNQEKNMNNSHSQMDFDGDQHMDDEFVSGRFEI

pIC50: 5.35
Compound: CNc1nc(N)c([N+](=O)[O-])c(Nc2cccc(F)c2)n1
